Measurements: paper PMC3813006 (Bioorganic & medicinal chemistry, 2009)
Each block holds one molecule with its values, some of them ahead of it.

Legend:
[1] = tested on: Trypanosoma brucei rhodesiense STIB900; test: In vitro antitrypanosomal assay, T. b. r. STIB900; assay type: cell-based; conditions: RHODESIENSE|STIB900, read-out: T. b. r. IC50
[2] = tested on: Plasmodium falciparum K1; test: microbe, parasite or virus in culture; conditions: K1, read-out: P. f. IC50
[3] = Cytotoxicity in cultured L6 rat myoblast cells; assay type: cell-based; conditions: rat, L6 rat myoblast cells
[4] = tested on: L6 rat myoblast cells; test: Cytotoxicity in cultured L6 rat myoblast cells; assay type: cell-based; conditions: read-out: Cytotoxicity IC50; cultured L6 rat myoblast cells

IC50 [1]: 0.0065 µM
IC50 [2]: 0.0065 µM
SMILES: N=C(N)c1ccc(-c2ccc(-c3ccc(C(=N)N)cn3)o2)cc1 [3a, azafuramidine]

SMILES: N=C(N)c1ccc(-c2ccc(-c3ccc(C(=N)N)cc3)cc2)cc1 [6a]
IC50 [3]: 22.1 µM

SMILES: N=C(N)c1ccc(-c2ccc(-c3ccc(C(=N)N)cc3)nn2)cc1 [15b]
IC50 [4]: 31.3 µM
